Key:
[1] = CD refolding (triple helix assembly) at 10° C. monitored at 225 nm; format: physicochemical; details: for folded after 2 hours: CD refolding
Method: Conversion was assumed to be at 100% after 96 h incubation at 4° C., and max trimer concentration was measured via CD ellipticity at 10° C. Samples were preheated to 80° C. in the sample cuvette for 10 min before being transferred directly to the sample holder held at a constant 10° C. Sample measurement began immediately. Initial time point for analysis was determined by measuring time for a blank (lx PBS) to thermally equilibrate in these conditions.
For all peptides, conversion was assumed to be at 100% after 96 h incubation at 4° C., and max trimer concentration was measured via CD ellipticity at 10° C. Samples were preheated to 80° C. in the sample cuvette for 10 min before being transferred directly to the sample holder held at a constant 10° C. Sample measurement began immediately. Initial time point for analysis was determined by measuring time for a blank (1×PBS) to thermally equilibrate in these conditions. This was set as the zero point for all peptides, as the large jump in CD due to temperature makes the initial jump irresolvable. (A) Rate of assembly of CHP 9 (60, 30, and 15 μM), over 2 h, monitored at 225 nm. (B) Rate of assembly of CHP 9d (30, 15, and 7.5 μM, corresponding to same CHP strand concentration from panel A), over 2 h, monitored at 225 nm. (C) Rate of assembly of CHP 6 (150 and 75 μM), over 2 h, monitored at 225 nm.
FIGS. 12A and 12B show CD refolding at 10° C. of CMPs monitored at 225 nm. CMPs were heated to 80° C. for 5 minutes before being placed into the CD and initial 2 min of monitored data was removed to eliminate thermal transition. Signal was normalized to that of a fully folded peptide.
(§1) Circular Dichroism: Circular Dichroism (CD) was measured for all peptides at 225 nm. Melting curves were taken on peptides between 10 and 80° C. at a heating rate of 0.5° C./min, with pauses at each 1° C. Refolding experiments were performed after peptide solutions were incubated at 4° C. for at least 12 hours. Concentrations were normalized to strand concentration.

[2] = CD thermal denaturation and cooling gradient 90 to 4° C., refolding; format: physicochemical; details: cooling 1° C./min from 90° C.
Method: (§2) FIGS. 5A, 5B, 5C, and 5D show the thermal denaturation of fully assembled CHPs and subsequent cooling to initial temperature. Samples were heated at 1° C./min from their initial temperature final temperature of 90° C. Sample was then cooled at 1° C./min to the starting temperature. (A) Thermal denaturation and partial reassembly of CHP CF-6d (150 μM) monitored at 225 nm. Sample was measured from 4° C. to 90° C. (B) Thermal denaturation and partial reassembly of CHP […] (75 μM, corresponding to 150 μM strand concentration) monitored at 225 nm. Sample was measured from 4° C. to 90° C. (C) Thermal denaturation and partial reassembly of CHP CF-9 (150 μM) monitored at 225 nm. Sample was measured from 10° C. to 90° C. (D) Thermal denaturation and partial reassembly of CHP CF-9d (75 μM, corresponding to 150 μM strand concentration) monitored at 225 nm. Sample was measured from 10° C. to 90° C.
The dimeric CHPs can also form their triple helices much more readily during slow cooling when compared to their monomeric counterparts. After thermal denaturation and heating to 90° C., the peptides were exposed to a decreasing thermal gradient from 90 to 4° C. (1° C./min) during which the ellipticity at 225 nm was monitored. During these cooling gradients, the dimeric CHPs began refolding at a higher temperature than the monomers with the same number of repeat units. […]

[3] = tested on: crosslinked gelatin films; test: Binding of CF-labelled CHPs to crosslinked gelatin films at 37° C. with and without preheating; parameters: species or system porcine; details: 20 μM, 37° C. overnight, PBS wash 20 h, FIG. 6C
Method: FIGS. 3A and 3B show the affinity of CHPs to gelatin films as monitored by fluorescence of conjugated CF fluorophore (492 ex, 533 em). (A) Fluorescence of CHPs bound to crosslinked gelatin after incubation at 37° C. overnight with no workup. (B) Fluorescence of CHPs remaining in crosslinked gelatin after incubation at 37° C. overnight without preheating, followed by washing with 1×PBS at 37° C. (20 h).
(A) Fraction of peptide remaining in a crosslinked gelatin film after 17 h at 25° C. (10 total washes). Values are normalized to fluorescence remaining in wells after 6 washes at 4° C. (>95% removal of CHPs 9r, 6r, and 5r). All washes performed in 1×PBS. (B) CHPs (15 μM) premixed into 10% porcine gelatin and preheated to 80° C. (10 min) before being added to a 96 well plate. Excess CHP-gelatin mixture was removed, then the premix was incubated at 4° C. for 2 hours. Wells were washed at 4° C., 5 times (>95% removal of CHPs 9r, 6r, and 5r). Wells were then washed for 2 hours (6 washes total) at 25° C. to monitor CHP remaining in the well. (C) Fluorescence of CHPs remaining in crosslinked gelatin after incubation at 37° C. overnight without preheating, followed by washing with 1×PBS at 37° C. (20 h). (D) Fluorescence of CHPs remaining in crosslinked gelatin after incubation at 37° C. overnight (80° C. preheating, 10 min), followed by washing with 1×PBS at 37° C. (20 h).
Dimeric CHPs were assessed for their ability to bind to collagen strands in crosslinked gelatin films. CHP solutions (20 μM in PBS) were added directly to the crosslinked gelatin films. For heated experiments, CHPs were preheated to 80° C. for 10 minutes before addition. Peptides were allowed to fully equilibrate with the gel at 37° C. overnight before being exposed to repeated washes (4×, PBS) at 37° C. to fully remove any non-specifically bound peptide and to determine binding level at body temperature. To measure retention, peptides were bound as previously described, but were subsequently washed with PBS 37° C. (5×1 h, 1×12 h) to measure retention within the gelatin films. […] Additionally, after a period of 20 hours, higher level of the dimeric CHP remained in the gelatin compared to the monomeric CHP.
A major limitation of the use of CHP in vivo, is the requirement of the triple helix to be fully disassembled before being injected. […] For this test, peptide solutions were allowed to warm to room temperature before being added (50 μL, 20 μM) to previously prepared crosslinked gelatin films. Solutions were then incubated at 37° C. overnight before removing the solution. Wells were washed at 37° C. with PBS (20 h) to determine binding. Preheated samples were prepared and incubated in the same way, but with preheating (80° C., 10 min) before being added to the crosslinked gelatin wells.

[4] = Triple helix melting point (Tm) by circular dichroism at 225 nm; format: physicochemical; details: for melting point: Example 3; for Tm (° C.): triple helix melting
Method: as §2
FIGS. 11A and 11B show the First Derivative of mean residue ellipticity (MRE) at 225 nm in CD. […] There is no significant change in melting point between the monomeric and dimeric forms of the same peptide.
as §1

Substance	folded after 2 hours ([1]; 60 μM) [%]	temperature below the reported Tm until which no significant refolding was observed [2]	binding to gelatin wells at 37° C. without preheating [3]	melting point [4] [°C]	Tm (° C.) ([4]; Table 1)	Tm (° C.) ([4]; Table 2)	refolding after two hours of incubation ([1]; 10° C., same strand concentration)	folded after 2 hours ([1]; 75 μM) [%]
(GPO)9 [compound 9]	40	~15 °C	unable to bind significantly without preheating	68	68 (SEQ ID NO: 56) ° C.	68 (SEQ ID NO: 56) ° C.		
(GPO)6 [compound 6]		approximately 10 °C	do not have a strong enough affinity to the gelatin to bind effectively at physiologic temperature	37	37 (SEQ ID NO: 59) ° C.	37 (SEQ ID NO: 59) ° C.	did not reach its half maximal refolding after two hours	28

Source: patent publication US11684675B2, “Dimeric collagen hybridizing peptides and methods of using” (University of Utah Research Foundation, priority 2015, dated 2023)
